Laboratory results from ChEMBL document CHEMBL2440076, “New triarylpyrazoles as broad-spectrum anticancer agents: design, synthesis, and biological evaluation” (Eur J Med Chem, 2013).

What was measured:
Assay type in all cases: functional
[1] = test system: MDA-MB-468; assay: Growth inhibition of human MDA-MB-468 cells assessed as cell growth at 5X10'-8 M after 48 hrs by sulforhodamine B assay; settings: MDA-MB-468, 48 h, read-out: Activity
[2] = test system: SF-268; assay: Growth inhibition of human SF268 cells assessed as cell growth at 5X10'-7 M after 48 hrs by sulforhodamine B assay; settings: SF-268, 48 h, read-out: Activity
[3] = test system: MDA-MB-468; assay: Growth inhibition of human MDA-MB-468 cells assessed as cell growth at 5X10'-9 M after 48 hrs by sulforhodamine B assay; settings: MDA-MB-468, 48 h, read-out: Activity
[4] = test system: OVCAR-8; assay: Growth inhibition of human OVCAR8 cells assessed as cell growth at 5X10'-7 M after 48 hrs by sulforhodamine B assay; settings: OVCAR-8, 48 h, read-out: Activity
[5] = test system: MCF7; assay: Growth inhibition of human MCF7 cells assessed as cell growth at 5X10'-9 M after 48 hrs by sulforhodamine B assay; settings: MCF7, 48 h, read-out: Activity
[6] = test system: HOP-62; assay: Growth inhibition of human HOP62 cells assessed as cell growth at 5X10'-7 M after 48 hrs by sulforhodamine B assay; settings: HOP-62, 48 h, read-out: Activity
[7] = test system: SF-295; assay: Growth inhibition of human SF295 cells assessed as cell growth at 5X10'-7 M after 48 hrs by sulforhodamine B assay; settings: SF-295, 48 h, read-out: Activity
[8] = test system: PC-3; assay: Growth inhibition of human PC3 cells assessed as cell growth at 5X10'-8 M after 48 hrs by sulforhodamine B assay; settings: PC-3, 48 h, read-out: Activity
[9] = test system: PC-3; assay: Growth inhibition of human PC3 cells assessed as cell growth at 5X10'-7 M after 48 hrs by sulforhodamine B assay; settings: PC-3, 48 h, read-out: Activity
[10] = test system: ACHN; assay: Growth inhibition of human ACHN cells assessed as cell growth at 5X10'-7 M after 48 hrs by sulforhodamine B assay; settings: read-out: Activity
[11] = test system: OVCAR-8; assay: Growth inhibition of human OVCAR8 cells assessed as cell growth at 5X10'-6 M after 48 hrs by sulforhodamine B assay; settings: OVCAR-8, 48 h, read-out: Activity
[12] = test system: SF-268; assay: Growth inhibition of human SF268 cells assessed as cell growth at 5X10'-5 M after 48 hrs by sulforhodamine B assay; settings: SF-268, 48 h, read-out: Activity
[13] = test system: 786-0; assay: Growth inhibition of human 786-0 cells assessed as cell growth at 5X10'-6 M after 48 hrs by sulforhodamine B assay; settings: 786-0, 48 h, read-out: Activity
[14] = test system: MDA-MB-435; assay: Growth inhibition of human MDA-MB-435 cells assessed as cell growth at 5X10'-5 M after 48 hrs by sulforhodamine B assay; settings: MDA-MB-435, 48 h, read-out: Activity
[15] = test system: RXF 393; assay: Growth inhibition of human RXF393 cells assessed as cell growth at 5X10'-8 M after 48 hrs by sulforhodamine B assay; settings: RXF 393, 48 h, read-out: Activity
[16] = test system: SK-MEL-2; assay: Growth inhibition of human SK-MEL-2 cells assessed as cell growth at 5X10'-9 M after 48 hrs by sulforhodamine B assay; settings: SK-MEL-2, 48 h, read-out: Activity
[17] = test system: KM12; assay: Growth inhibition of human KM12 cells assessed as cell growth at 5X10'-9 M after 48 hrs by sulforhodamine B assay; settings: KM12, 48 h, read-out: Activity
[18] = test system: MCF7; assay: Growth inhibition of human MCF7 cells assessed as cell growth at 5X10'-8 M after 48 hrs by sulforhodamine B assay; settings: MCF7, 48 h, read-out: Activity
[19] = test system: HOP-62; assay: Growth inhibition of human HOP62 cells assessed as cell growth at 5X10'-9 M after 48 hrs by sulforhodamine B assay; settings: HOP-62, 48 h, read-out: Activity
[20] = test system: A549; assay: Growth inhibition of human A549/ATCC cells assessed as cell growth at 5X10'-8 M after 48 hrs by sulforhodamine B assay; settings: A549, 48 h, read-out: Activity
[21] = test system: 786-0; assay: Growth inhibition of human 786-0 cells assessed as cell growth at 5X10'-8 M after 48 hrs by sulforhodamine B assay; settings: 786-0, 48 h, read-out: Activity
[22] = test system: OVCAR-8; assay: Growth inhibition of human OVCAR8 cells assessed as cell growth at 5X10'-8 M after 48 hrs by sulforhodamine B assay; settings: OVCAR-8, 48 h, read-out: Activity
[23] = test system: UO-31; assay: Growth inhibition of human UO31 cells assessed as cell growth at 5X10'-5 M after 48 hrs by sulforhodamine B assay; settings: UO-31, 48 h, read-out: Activity
[24] = test system: MOLT-4; assay: Growth inhibition of human MOLT4 cells assessed as cell growth at 5X10'-5 M after 48 hrs by sulforhodamine B assay; settings: MOLT-4, 48 h, read-out: Activity
[25] = test system: SW-620; assay: Growth inhibition of human SW620 cells assessed as cell growth at 5X10'-5 M after 48 hrs by sulforhodamine B assay; settings: SW-620, 48 h, read-out: Activity
[26] = test system: HCT-116; assay: Growth inhibition of human HCT116 cells assessed as cell growth at 5X10'-7 M after 48 hrs by sulforhodamine B assay; settings: HCT-116, 48 h, read-out: Activity
[27] = test system: SK-OV-3; assay: Growth inhibition of human SKOV3 cells assessed as cell growth at 5X10'-6 M after 48 hrs by sulforhodamine B assay; settings: SK-OV-3, 48 h, read-out: Activity
[28] = test system: LOX IMVI; assay: Growth inhibition of human LOXIMVI cells assessed as cell growth at 5X10'-7 M after 48 hrs by sulforhodamine B assay; settings: read-out: Activity
[29] = test system: SK-MEL-28; assay: Growth inhibition of human SK-MEL-28 cells assessed as cell growth at 5X10'-7 M after 48 hrs by sulforhodamine B assay; settings: SK-MEL-28, 48 h, read-out: Activity
[30] = test system: OVCAR-5; assay: Growth inhibition of human OVCAR5 cells assessed as cell growth at 5X10'-9 M after 48 hrs by sulforhodamine B assay; settings: OVCAR-5, 48 h, read-out: Activity
[31] = test system: MDA-MB-468; assay: Growth inhibition of human MDA-MB-468 cells assessed as cell growth at 5X10'-7 M after 48 hrs by sulforhodamine B assay; settings: MDA-MB-468, 48 h, read-out: Activity
[32] = test system: TK-10; assay: Growth inhibition of human TK10 cells assessed as cell growth at 5X10'-8 M after 48 hrs by sulforhodamine B assay; settings: TK-10, 48 h, read-out: Activity
[33] = test system: SR; assay: Growth inhibition of human SR cells assessed as cell growth at 5X10'-9 M after 48 hrs by sulforhodamine B assay; settings: read-out: Activity
[34] = test system: SK-MEL-28; assay: Growth inhibition of human SK-MEL-28 cells assessed as cell growth at 5X10'-9 M after 48 hrs by sulforhodamine B assay; settings: SK-MEL-28, 48 h, read-out: Activity
[35] = test system: MCF7; assay: Growth inhibition of human MCF7 cells assessed as cell growth at 5X10'-6 M after 48 hrs by sulforhodamine B assay; settings: MCF7, 48 h, read-out: Activity
[36] = test system: U-251; assay: Growth inhibition of human U251 cells assessed as cell growth at 5X10'-8 M after 48 hrs by sulforhodamine B assay; settings: U-251, 48 h, read-out: Activity
[37] = test system: PC-3; assay: Growth inhibition of human PC3 cells assessed as cell growth at 5X10'-5 M after 48 hrs by sulforhodamine B assay; settings: PC-3, 48 h, read-out: Activity
[38] = test system: TK-10; assay: Growth inhibition of human TK10 cells assessed as cell growth at 5X10'-9 M after 48 hrs by sulforhodamine B assay; settings: TK-10, 48 h, read-out: Activity

COc1cc(-c2nn(-c3cccc(NC(=O)Nc4ccc(Cl)c(Cl)c4)c3)cc2-c2ccncc2)ccc1Cl
growth at 0.05 µM [1]: 84% | growth at 0.5 µM [2]: 89% | growth at 0.005 µM [3]: 94% | growth at 0.5 µM [4]: 73% | growth at 0.005 µM [5]: 91% | growth at 0.5 µM [6]: 93% | growth at 0.5 µM [7]: 62% | growth at 0.05 µM [8]: 95% | growth at 0.5 µM [9]: 53% | growth at 0.5 µM [10]: 70% | growth at 5 µM [11]: -12% | growth at 50 µM [12]: -5% | growth at 5 µM [13]: -5% | growth at 50 µM [14]: -31% | growth at 0.05 µM [15]: 94% | growth at 0.005 µM [16]: 109% | growth at 0.005 µM [17]: 103% | growth at 0.05 µM [18]: 92% | growth at 0.005 µM [19]: 93% | growth at 0.05 µM [20]: 92% | growth at 0.05 µM [21]: 102% | growth at 0.05 µM [22]: 96% | growth at 50 µM [23]: -11% | growth at 50 µM [24]: -19% | growth at 50 µM [25]: 7% | growth at 0.5 µM [26]: 78% | growth at 5 µM [27]: 12% | growth at 0.5 µM [28]: 82% | growth at 0.5 µM [29]: 91% | growth at 0.005 µM [30]: 93% | growth at 0.5 µM [31]: 55% | growth at 0.05 µM [32]: 103% | growth at 0.005 µM [33]: 99% | growth at 0.005 µM [34]: 106% | growth at 5 µM [35]: 2% | growth at 0.05 µM [36]: 93% | growth at 50 µM [37]: -22% | growth at 0.005 µM [38]: 100%
